One experiment addresses rat orexin 1 receptor (Rattus norvegicus, UniProt P56718). As to the kind of experiment: Rat orexin 1 receptor radioligand binding. As to conditions: rat orexin 1 receptor radioligand binding; averages of 2-20 runs; read-out: rOX1 Ki. The method in brief:
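Cell-suspension competition binding used 4 nM final tritiated thiazolyl-pyrrolidinyl-methanone radioligand in PBS, ≤0.1% DMSO, with 10 µM almorexant defining nonspecific binding. Filter-bound radioactivity was counted in triplicate. IC50 came from one-site competition fits and was converted to Ki using the predetermined Kd.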

For a further experiment, the target named is human orexin 1 receptor (Homo sapiens, UniProt O43613). As to the kind of experiment: Human orexin 1 receptor radioligand binding. The settings on record: human orexin 1 receptor radioligand binding; averages of 2-20 runs; read-out: hOX1 Ki.
The target in the next experiment is human orexin 2 receptor (Homo sapiens (Human), UniProt O43614). Briefly: Human orexin 2 receptor radioligand binding ([3H]-EMPA). The settings on record: averages of 2-20 runs, read-out: hOX2 Ki. The method in brief:
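Competition binding using homogenized HEK293 cells stably expressing human orexin 2 receptor, [3H]-EMPA at 2 nM final and ≤0.1% DMSO; nonspecific binding set with 10 μM almorexant. Filter-bound radioactivity counted by scintillation; one-site competition IC50 converted to Ki using pre-determined Kd, compounds run in triplicate.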

Chain of human orexin 2 receptor (O43614 whole entry): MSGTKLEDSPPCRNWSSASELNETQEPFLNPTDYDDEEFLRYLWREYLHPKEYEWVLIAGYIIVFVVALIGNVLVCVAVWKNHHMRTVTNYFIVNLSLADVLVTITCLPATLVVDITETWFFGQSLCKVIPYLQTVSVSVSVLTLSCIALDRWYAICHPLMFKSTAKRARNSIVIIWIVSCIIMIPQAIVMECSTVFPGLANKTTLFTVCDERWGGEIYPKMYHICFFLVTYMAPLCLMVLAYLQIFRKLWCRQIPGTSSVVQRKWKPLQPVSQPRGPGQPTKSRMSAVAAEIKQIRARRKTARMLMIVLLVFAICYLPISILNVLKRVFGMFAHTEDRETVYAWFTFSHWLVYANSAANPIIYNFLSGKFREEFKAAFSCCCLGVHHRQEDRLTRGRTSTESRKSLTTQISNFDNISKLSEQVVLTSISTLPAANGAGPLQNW

In the case of `Cc1ccc(C(=O)N2CCC[C@@H](Oc3ccc(C(F)(F)F)cn3)[C@@H]2C)c(-n2nccn2)c1` [Example 112, (4-methyl-2-(2H-1,2,3-triazol-2-yl)phenyl)((2S,3R)-2-methyl-3-((5-(trifluoromethyl)pyridin-2-yl)oxy)piperidin-1-yl)methanone], the results for the Ki on rat orexin 1 receptor, at human orexin 1 receptor and at human orexin 2 receptor were 7 nM, 11 nM and 664 nM, respectively.

As for `Cc1ccc(C(=O)N2CCC[C@@H](Oc3cnc(C(F)(F)F)cn3)[C@@H]2C)c(-n2nccn2)c1` [Example 113, (4-methyl-2-(2H-1,2,3-triazol-2-yl)phenyl)((2S,3R)-2-methyl-3-((5-(trifluoromethyl)pyrazin-2-yl)oxy)piperidin-1-yl)methanone], the Ki worked out at 25 nM at rat orexin 1 receptor, 43 nM at human orexin 1 receptor and 3900 nM on human orexin 2 receptor.

In the case of `C[C@H]1[C@H](Oc2ccc(C(F)(F)F)cn2)CCCN1C(=O)c1cccc(F)c1-c1ncccn1` [Example 116, (3-fluoro-2-(pyrimidin-2-yl)phenyl)((2S,3R)-2-methyl-3-((5-(trifluoromethyl)pyridin-2-yl)oxy)piperidin-1-yl)methanone], the Ki at rat orexin 1 receptor is 15 nM; at human orexin 1 receptor, 18 nM; at human orexin 2 receptor, 598 nM.

As for `C[C@H]1[C@H](Oc2ccc(C(F)(F)F)cn2)CCCN1C(=O)c1cccc(F)c1-n1nccn1` [Example 124, (3-fluoro-2-(2H-1,2,3-triazol-2-yl)phenyl)((2S,3R)-2-methyl-3-((5-(trifluoromethyl)pyridin-2-yl)oxy)piperidin-1-yl)methanone], the Ki at rat orexin 1 receptor stood at 21 nM; at human orexin 1 receptor, 13 nM; at human orexin 2 receptor, 460 nM.

`C[C@H]1[C@H](Oc2cnc(C(F)(F)F)cn2)CCCN1C(=O)c1cccc(F)c1-n1nccn1` [Example 125, (3-fluoro-2-(2H-1,2,3-triazol-2-yl)phenyl)((2S,3R)-2-methyl-3-((5-(trifluoromethyl)pyrazin-2-yl)oxy)piperidin-1-yl)methanone]: the values for the Ki at rat orexin 1 receptor, on human orexin 1 receptor and on human orexin 2 receptor were 117 nM, 138 nM and 2500 nM, respectively.

As for `C[C@H]1[C@H](Oc2ccc(C(F)(F)F)cn2)CCCN1C(=O)c1cc(F)ccc1-c1ncccn1` [Example 138, (5-fluoro-2-(pyrimidin-2-yl)phenyl)((2S,3R)-2-methyl-3-((5-(trifluoromethyl)pyridin-2-yl)oxy)piperidin-1-yl)methanone], the Ki is 20 nM on rat orexin 1 receptor, 18 nM on human orexin 1 receptor and 544 nM on human orexin 2 receptor.

As to `C[C@H]1[C@H](Oc2ccc(C(F)(F)F)cn2)CCCN1C(=O)c1ccc(F)cc1-c1ncccn1` [Example 139, (4-fluoro-2-(pyrimidin-2-yl)phenyl)((2S,3R)-2-methyl-3-((5-(trifluoromethyl)pyridin-2-yl)oxy)piperidin-1-yl)methanone], the values for the Ki on rat orexin 1 receptor, on human orexin 1 receptor and on human orexin 2 receptor were 51 nM, 51 nM and 1200 nM, respectively.

Consider `C[C@H]1[C@H](Oc2ccc(C(F)(F)F)cn2)CCCN1C(=O)c1ccccc1-c1ncc(F)cn1` [Example 141, (2-(5-fluoropyrimidin-2-yl)phenyl)((2S,3R)-2-methyl-3-((5-(trifluoromethyl)pyridin-2-yl)oxy)piperidin-1-yl)methanone], for which the values for the Ki at rat orexin 1 receptor, on human orexin 1 receptor and at human orexin 2 receptor were 31 nM, 22 nM and 676 nM, respectively.

Consider `C[C@H]1[C@H](Oc2ccc(C(F)(F)F)cn2)CCCN1C(=O)c1ccccc1-c1ncccn1` [Example 143, ((2S,3R)-2-methyl-3-((5-(trifluoromethyl)pyridin-2-yl)oxy)piperidin-1-yl)(2-(pyrimidin-2-yl)phenyl)methanone], for which the Ki came to 25 nM at rat orexin 1 receptor, 15 nM on human orexin 1 receptor and 473 nM at human orexin 2 receptor.

For `C[C@H]1[C@H](Oc2ccc(C(F)(F)F)cn2)CCCN1C(=O)c1ccc(F)cc1-n1nccn1` [Example 147, (4-fluoro-2-(2H-1,2,3-triazol-2-yl)phenyl)((2S,3R)-2-methyl-3-((5-(trifluoromethyl)pyridin-2-yl)oxy)piperidin-1-yl)methanone], the results for the Ki on rat orexin 1 receptor, at human orexin 1 receptor and on human orexin 2 receptor were 50 nM, 31 nM and 765 nM, respectively.

On to `Cc1cnc(-n2nccn2)c(C(=O)N2CCC[C@@H](Oc3ccc(C(F)(F)F)cn3)[C@@H]2C)c1` [Example 149, (5-methyl-2-(2H-1,2,3-triazol-2-yl)pyridin-3-yl)((2S,3R)-2-methyl-3-((5-(trifluoromethyl)pyridin-2-yl)oxy)piperidin-1-yl)methanone], for which the values for the Ki at rat orexin 1 receptor, on human orexin 1 receptor and on human orexin 2 receptor were 24 nM, 18 nM and 5600 nM, respectively.

For the compound `Cc1ccc(C(=O)N2CCC[C@@H](Oc3ccc(C(F)(F)F)cn3)[C@@H]2C)c(-n2nccn2)n1` [Example 150, (6-methyl-2-(2H-1,2,3-triazol-2-yl)pyridin-3-yl)((2S,3R)-2-methyl-3-((5-(trifluoromethyl)pyridin-2-yl)oxy)piperidin-1-yl)methanone], the Ki at rat orexin 1 receptor is 32 nM; at human orexin 1 receptor, 39 nM; on human orexin 2 receptor it was over 10000 nM.

On to `Cc1cccc(C(=O)N2CCC[C@@H](Oc3ccc(C(F)(F)F)cn3)[C@@H]2C)c1-c1ncccn1` [Example 151, (3-methyl-2-(pyrimidin-2-yl)phenyl)((2S,3R)-2-methyl-3-((5-(trifluoromethyl)pyridin-2-yl)oxy)piperidin-1-yl)methanone], for which the figures for the inhibition constant Ki on rat orexin 1 receptor, on human orexin 1 receptor and at human orexin 2 receptor were 35 nM, 31 nM and 537 nM, respectively.

Turning to `Cc1cccc(C(=O)N2CCC[C@@H](Oc3ccc(C(F)(F)F)cn3)[C@@H]2C)c1-n1nccn1` [Example 152, (3-methyl-2-(2H-1,2,3-triazol-2-yl)phenyl)((2S,3R)-2-methyl-3-((5-(trifluoromethyl)pyridin-2-yl)oxy)piperidin-1-yl)methanone], the Ki at rat orexin 1 receptor amounted to 28 nM; on human orexin 1 receptor, 20 nM; on human orexin 2 receptor, 412 nM.

With `C[C@H]1[C@H](Oc2ncc(C(F)(F)F)cc2F)CCCN1C(=O)c1ccccc1-c1ncccn1` [Example 154, ((2S,3R)-3-((3-fluoro-5-(trifluoromethyl)pyridin-2-yl)oxy)-2-methylpiperidin-1-yl)(2-(pyrimidin-2-yl)phenyl)methanone], the Ki is 46 nM at rat orexin 1 receptor, 22 nM at human orexin 1 receptor and 526 nM at human orexin 2 receptor.

Turning to `C[C@H]1[C@H](Oc2ncc(C(F)(F)F)cc2F)CCCN1C(=O)c1cccc(F)c1-c1ncccn1` [Example 155, (3-fluoro-2-(pyrimidin-2-yl)phenyl)((2S,3R)-3-((3-fluoro-5-(trifluoromethyl)pyridin-2-yl)oxy)-2-methylpiperidin-1-yl)methanone], the values for the Ki at rat orexin 1 receptor, on human orexin 1 receptor and at human orexin 2 receptor were 28 nM, 16 nM and 1100 nM, respectively.

For `C[C@H]1[C@H](Oc2ncc(C(F)(F)F)cc2F)CCCN1C(=O)c1ccccc1-c1ncc(F)cn1` [Example 156, ((2S,3R)-3-((3-fluoro-5-(trifluoromethyl)pyridin-2-yl)oxy)-2-methylpiperidin-1-yl)(2-(5-fluoropyrimidin-2-yl)phenyl)methanone], the Ki at rat orexin 1 receptor was determined as 47 nM; on human orexin 1 receptor, 30 nM; at human orexin 2 receptor, 1300 nM.

With `Cc1cnc(-n2nccn2)c(C(=O)N2CCC[C@@H](Oc3ncc(C(F)(F)F)cc3F)[C@@H]2C)c1` [Example 157, ((2S,3R)-3-((3-fluoro-5-(trifluoromethyl)pyridin-2-yl)oxy)-2-methylpiperidin-1-yl)(5-methyl-2-(2H-1,2,3-triazol-2-yl)pyridin-3-yl)methanone], the Ki on rat orexin 1 receptor was 49 nM; on human orexin 1 receptor, 27 nM; on human orexin 2 receptor, over 10000 nM.

With `Cc1cccc(C(=O)N2CCC[C@@H](Oc3ncc(C(F)(F)F)cc3F)[C@@H]2C)c1-n1nccn1` [Example 158, ((2S,3R)-3-((3-fluoro-5-(trifluoromethyl)pyridin-2-yl)oxy)-2-methylpiperidin-1-yl)(3-methyl-2-(2H-1,2,3-triazol-2-yl)phenyl)methanone], the Ki at rat orexin 1 receptor is 36 nM; at human orexin 1 receptor, 34 nM; on human orexin 2 receptor, 575 nM.

Regarding `C[C@H]1[C@H](Oc2ncc(C(F)(F)F)cc2F)CCCN1C(=O)c1cccc(F)c1-n1nccn1` [Example 159, (3-fluoro-2-(2H-1,2,3-triazol-2-yl)phenyl)((2S,3R)-3-((3-fluoro-5-(trifluoromethyl)pyridin-2-yl)oxy)-2-methylpiperidin-1-yl)methanone], the Ki worked out at 60 nM at rat orexin 1 receptor, 14 nM at human orexin 1 receptor and 1550 nM on human orexin 2 receptor.

Regarding `Cc1ccc(-n2nccn2)c(C(=O)N2CCC[C@@H](Oc3ncc(C(F)(F)F)cc3F)[C@@H]2C)n1` [Example 160, ((2S,3R)-3-((3-fluoro-5-(trifluoromethyl)pyridin-2-yl)oxy)-2-methylpiperidin-1-yl)(6-methyl-3-(2H-1,2,3-triazol-2-yl)pyridin-2-yl)methanone], the figures for the Ki at rat orexin 1 receptor, on human orexin 1 receptor and on human orexin 2 receptor were 23 nM, 22 nM and 620 nM, respectively.

Take `C[C@H]1[C@H](Oc2ncc(Cl)cn2)CCCN1C(=O)c1cccc(F)c1-n1nccn1` [Example 161, ((2S,3R)-3-((5-chloropyrimidin-2-yl)oxy)-2-methylpiperidin-1-yl)(3-fluoro-2-(2H-1,2,3-triazol-2-yl)phenyl)methanone]: the Ki is 226 nM on rat orexin 1 receptor, 395 nM on human orexin 1 receptor and 3200 nM at human orexin 2 receptor.

In the case of `Cc1ccc(-n2nccn2)c(C(=O)N2CCC[C@@H](Oc3ncc(Cl)cn3)[C@@H]2C)n1` [Example 164, ((2S,3R)-3-((5-chloropyrimidin-2-yl)oxy)-2-methylpiperidin-1-yl)(6-methyl-3-(2H-1,2,3-triazol-2-yl)pyridin-2-yl)methanone], the Ki at rat orexin 1 receptor stood at 144 nM; at human orexin 1 receptor, 230 nM; at human orexin 2 receptor, 3800 nM.

The Ki is a measure of affinity in units of concentration, obtained from inhibition or displacement.

The values above are taken from patent US9611251B2, “Substituted piperidine compounds and their use as orexin receptor modulators” (Janssen Pharmaceutica NV, priority 2013, dated 2017).
